Data as given in patent US11214803B2, “Modulators of YAP1 expression” (Ionis Pharmaceuticals, Inc., priority 2019, dated 2022).
Strand notation (5' to 3'): a small letter for the sugar, then the base; units joined by * are phosphorothioate-linked, units joined directly phosphodiester-linked; [ ] holds rarer units or linkages, { } end groups; capitals alone tell only the bases. k = constrained ethyl (cEt); [5mC] = 5-methylcytosine; d = 2'-deoxy (DNA)

System: Yap1 mRNA
Experiment: Antisense inhibition of human Yap1 in A-431 cells by cEt gapmers, single dose (Example 2, RTS4814)
Assay type: cell-based
Conditions: A-431 cells, 5,000 cells per well, free uptake, 2,000 nM modified oligonucleotide, approx. 48 hours, RTS4814, normalized to RIBOGREEN; Table 4; asterisk (*) = targets amplicon region of primer probe set
Outline: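 Yap1 mRNA levels, by real-time RT-PCR (RTS4814) and corrected for total RNA via RIBOGREEN, are given as percent of untreated cells. Gapmers (16-mer, cEt wings, phosphorothioate, 5-methylC) were delivered without transfection at 2,000 nM to A-431 cells for about 48 hours.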

| Substance | YAP1 (% UTC) |
| --- | --- |
| 716532 (antisense k[5mC]*kA*kA*dG*dA*dA*dG*d[5mC]*dA*dG*dT*dT*dA*kA*kG*k[5mC]) [Compound 716532] | 70 |
| 716364 (k[5mC]*kG*k[5mC]*d[5mC]*dG*d[5mC]*dG*dG*dG*dT*dG*d[5mC]*d[5mC]*kG*kG*kT; antisense) [Compound 716364] | 110 |
| 716508 (antisense k[5mC]*kT*kA*dG*dG*dT*dA*dG*dA*dA*dT*dT*dT*k[5mC]*kA*kT) [Compound 716508] | 67 |
| 716493 (kA*k[5mC]*kA*dT*dT*dG*dA*dA*dA*dG*dA*d[5mC]*d[5mC]*k[5mC]*kT*kT; antisense) [Compound 716493] | 30 |
| 716484 (k[5mC]*kA*k[5mC]*dT*dT*dT*dT*d[5mC]*d[5mC]*dA*dG*d[5mC]*dT*kA*kA*k[5mC]; antisense) [Compound 716484] | 35 |
| 716448 (k[5mC]*k[5mC]*kG*dA*d[5mC]*dA*dA*dA*dA*d[5mC]*d[5mC]*dA*dA*k[5mC]*k[5mC]*kA; antisense) [Compound 716448] | 62 |

Same assay, conditions: Table 5; A-431 cells, 5,000 cells per well, free uptake, 2,000 nM modified oligonucleotide, approx. 48 hours; RTS4814; normalized to RIBOGREEN; Yap1 mRNA relative to untreated control cells

| Substance | YAP1 (% UTC) |
| --- | --- |
| 716503 (kT*kT*kA*dT*dT*dA*dT*dG*dA*dG*dT*dG*dA*kT*k[5mC]*kA; antisense) [Compound 716503] | 33 |
| 716494 (kA*kA*kG*dG*dG*d[5mC]*dT*dT*dA*dT*dT*d[5mC]*dT*kA*kG*kA; antisense) [Compound 716494] | 112 |
| 716377 (kG*kG*kT*dA*dT*d[5mC]*dT*d[5mC]*dA*dA*dA*dA*dG*kA*kA*kG; antisense) [Compound 716377] | 76 |
| 716401 (kA*kA*k[5mC]*dT*dG*dG*d[5mC]*dT*dA*d[5mC]*dG*d[5mC]*dA*kG*kG*kG; antisense) [Compound 716401] | 92 |

Same assay, conditions: Table 6; A-431 cells, 5,000 cells per well, free uptake, 2,000 nM modified oligonucleotide, approx. 48 hours; RTS4814; normalized to RIBOGREEN; Yap1 mRNA relative to untreated control cells

| Substance | YAP1 (% UTC) |
| --- | --- |
| 716432 (kT*k[5mC]*kT*dG*dA*dG*dT*dA*dT*dT*dT*dA*dG*kT*kT*kA; antisense) [Compound 716432] | 30 |

Same assay, conditions: Table 18; A-431 cells, 5,000 cells per well, free uptake, 2,000 nM modified oligonucleotide, approx. 48 hours; RTS4814; normalized to RIBOGREEN; Yap1 mRNA as percent of untreated control

| Substance | YAP1 (% UTC) |
| --- | --- |
| 1074948 (antisense kG*kA*kG*dT*dT*d[5mC]*d[5mC]*dA*dA*dA*dA*d[5mC]*d[5mC]*k[5mC]*kT*kT) [Compound 1074948] | 61 |
| 1075972 (kT*k[5mC]*kA*d[5mC]*dA*dA*dG*dG*dG*d[5mC]*dT*dA*dA*kT*kT*k[5mC]; antisense) [Compound 1075972] | 22 |
| 1074532 (antisense kG*kA*kA*d[5mC]*dA*d[5mC]*dT*dA*dA*dA*d[5mC]*dT*dA*k[5mC]*kT*kT) [Compound 1074532] | 59 |
| 1076548 (antisense k[5mC]*kA*k[5mC]*d[5mC]*dA*dA*d[5mC]*d[5mC]*dT*dG*dT*dT*dA*kA*kG*kG) [Compound 1076548] | 106 |

Same assay, conditions: Table 19; A-431 cells, 5,000 cells per well, free uptake, 2,000 nM modified oligonucleotide, approx. 48 hours; RTS4814; normalized to RIBOGREEN; Yap1 mRNA as percent of untreated control

| Substance | YAP1 (% UTC) |
| --- | --- |
| 1074277 (antisense kG*kT*k[5mC]*dT*dA*dG*d[5mC]*d[5mC]*dA*dA*dG*dA*dG*kG*kT*kG) [Compound 1074277] | 18 |

Same assay, conditions: Table 20; Yap1 mRNA, percent of untreated control; 3-10-3 cEt gapmers targeting SEQ ID NO.: 1 and 2

| Substance | YAP1 (% UTC) |
| --- | --- |
| 1075526 (kT*kT*kT*dA*dA*dT*dT*dA*dA*dG*dG*dG*d[5mC]*k[5mC]*k[5mC]*kA; antisense) [Compound 1075526] | 110 |

Same assay, conditions: Table 21; Yap1 mRNA, percent of untreated control; 3-10-3 cEt gapmers targeting SEQ ID NO.: 1 and 2

| Substance | YAP1 (% UTC) |
| --- | --- |
| 1076359 (kA*kT*kT*dT*dA*dT*d[5mC]*d[5mC]*dT*dA*dG*dT*dT*kA*k[5mC]*k[5mC]; antisense) [Compound 1076359] | 29 |
| 1076231 (kT*kT*kA*dG*dA*dA*dA*dT*dG*dG*dA*d[5mC]*dT*kG*kG*kG; antisense) [Compound 1076231] | 16 |
| 1076519 (antisense kA*k[5mC]*kA*d[5mC]*dA*dA*d[5mC]*dA*d[5mC]*dG*dA*d[5mC]*dA*kG*k[5mC]*kA) [Compound 1076519] | 31 |

Same assay, conditions: Table 22; Yap1 mRNA as percent of untreated control; 3-10-3 cEt gapmers; single dose

| Substance | YAP1 (% UTC) |
| --- | --- |
| 1076488 (antisense kG*k[5mC]*k[5mC]*dA*dA*dT*dA*dA*dG*dA*dT*dA*dA*kG*kA*kA) [Compound 1076488] | 19 |
| 1074952 (antisense kG*kT*kT*dT*dT*dT*dG*dT*d[5mC]*dA*dT*d[5mC]*dA*kG*kG*kT) [Compound 1074952] | 42 |
| 1075976 (kA*kT*kT*dA*dA*dA*dA*dG*dT*d[5mC]*dG*dG*dG*k[5mC]*k[5mC]*kA; antisense) [Compound 1075976] | 92 |
| 1075752 (k[5mC]*kA*kT*dA*dA*dT*dT*dA*dT*dA*d[5mC]*dT*dG*kA*kT*k[5mC]; antisense) [Compound 1075752] | 19 |
| 1075848 (kG*kA*kT*dT*dA*d[5mC]*dA*dA*dT*dG*dG*dG*d[5mC]*kA*kG*kT; antisense) [Compound 1075848] | 9 |

Same assay, conditions: Table 23; Yap1 mRNA as percent of untreated control; 3-10-3 cEt gapmers; single dose

| Substance | YAP1 (% UTC) |
| --- | --- |
| 1074313 (antisense kT*kG*kA*dT*dA*dT*dT*d[5mC]*d[5mC]*dG*d[5mC]*dA*dT*kT*kG*k[5mC]) [Compound 1074313] | 5 |
| 1074473 (k[5mC]*kA*kA*d[5mC]*d[5mC]*d[5mC]*d[5mC]*d[5mC]*d[5mC]*d[5mC]*dA*d[5mC]*d[5mC]*kG*kA*k[5mC]; antisense) [Compound 1074473] | 82 |
| 1075177 (antisense kG*kA*kA*dA*dT*dT*dA*d[5mC]*d[5mC]*d[5mC]*dG*dG*dG*kA*kA*k[5mC]) [Compound 1075177] | 27 |

Same assay, conditions: Table 24; Yap1 mRNA as percent of untreated control; 3-10-3 cEt gapmers targeting SEQ ID NO.: 1, and 2

| Substance | YAP1 (% UTC) |
| --- | --- |
| 1074922 (antisense k[5mC]*kT*kT*dT*d[5mC]*d[5mC]*dA*d[5mC]*dT*d[5mC]*dA*dA*dG*kT*kT*kA) [Compound 1074922] | 87 |
| 1076138 (kA*kG*k[5mC]*d[5mC]*dA*dA*d[5mC]*dA*dA*dT*dT*dT*dT*kT*kG*kG; antisense) [Compound 1076138] | 113 |
| 1076394 (k[5mC]*k[5mC]*kT*dA*dA*dA*dT*dT*dA*dG*dA*d[5mC]*dT*kT*kG*kA; antisense) [Compound 1076394] | 20 |
| 1076074 (k[5mC]*kT*kA*dA*dT*dT*dA*dG*d[5mC]*dT*dT*dT*d[5mC]*kA*kG*k[5mC]; antisense) [Compound 1076074] | 92 |
| 1076106 (k[5mC]*kT*kA*d[5mC]*dG*dA*dA*dA*dT*dA*dG*dT*dA*kA*k[5mC]*kT; antisense) [Compound 1076106] | 77 |

Same assay, conditions: Table 25; Yap1 mRNA as percent of untreated control; 3-10-3 cEt gapmers targeting SEQ ID NO.: 1, and 2

| Substance | YAP1 (% UTC) |
| --- | --- |
| 1075979 (k[5mC]*kA*kT*dA*dA*dT*d[5mC]*d[5mC]*dA*d[5mC]*dT*dA*dT*kG*k[5mC]*kA; antisense) [Compound 1075979] | 18 |
| 1074859 (antisense kG*kT*kA*dA*d[5mC]*dA*dT*dT*dG*dG*dT*dA*d[5mC]*kT*kA*kT) [Compound 1074859] | 16 |

Same assay, conditions: Table 32; Yap1 mRNA, percent of untreated control; 3-10-3 cEt gapmers targeting SEQ ID NO.: 1, and 2

| Substance | YAP1 (% UTC) |
| --- | --- |
| 1075186 (kA*kA*kA*dT*d[5mC]*dG*dA*dT*dT*dA*dT*dT*d[5mC]*kA*kG*kA; antisense) [compound 1075186] | 73 |
| 1076050 (k[5mC]*kT*kT*dT*dA*dG*dA*dT*dT*dA*dA*dA*dG*kG*k[5mC]*kT; antisense) [compound 1076050] | 45 |
| 1075762 (kG*kA*kT*dA*dA*dA*dT*dG*dG*dG*dT*dT*dG*kA*kT*kT; antisense) [compound 1075762] | 20 |

Same assay, conditions: Table 33; Yap1 mRNA, percent of untreated control; 3-10-3 cEt gapmers targeting SEQ ID NO.: 1, and 2

| Substance | YAP1 (% UTC) |
| --- | --- |
| 1076371 (antisense kT*kA*kA*dG*dA*dA*d[5mC]*dG*dA*dA*d[5mC]*d[5mC]*dT*k[5mC]*k[5mC]*kA) [compound 1076371] | 49 |
| 1075027 (antisense kA*kA*kA*dT*dT*dT*dG*dA*dA*d[5mC]*dT*dG*d[5mC]*k[5mC]*k[5mC]*kA) [compound 1075027] | 28 |
| 1076339 (antisense k[5mC]*kA*kG*d[5mC]*dA*dA*dT*dA*d[5mC]*dT*dG*dT*dG*kG*kG*k[5mC]) [compound 1076339] | 13 |

Same assay, conditions: Yap1 mRNA as percent of untreated control; A-431 cells; 3-10-3 cEt gapmers targeting SEQ ID NO.: 1, and 2; Table 30

| Substance | YAP1 (% UTC) |
| --- | --- |
| 1076304 (kA*k[5mC]*kT*dA*dA*dT*dA*dA*dG*d[5mC]*d[5mC]*dT*d[5mC]*kA*k[5mC]*k[5mC]; antisense) [compound 1076304] | 30 |
| 1076016 (kT*kA*kA*dT*dA*dG*dG*dA*dT*dG*dG*dA*dT*kT*k[5mC]*kT; antisense) [compound 1076016] | 8 |

Same assay, conditions: Yap1 mRNA as percent of untreated control; A-431 cells; 3-10-3 cEt gapmers targeting SEQ ID NO.: 1, and 2; Table 31

| Substance | YAP1 (% UTC) |
| --- | --- |
| 1074929 (antisense kT*kA*kT*dA*d[5mC]*dA*dA*d[5mC]*dA*dG*dG*d[5mC]*d[5mC]*kT*kG*k[5mC]) [compound 1074929] | 79 |
| 1076081 (kG*kA*kT*dA*dA*dT*dT*d[5mC]*dA*d[5mC]*d[5mC]*d[5mC]*dT*kT*kG*kT; antisense) [compound 1076081] | 15 |
